# From patent US8946234B2, “Halogen-substituted compounds” (Bayer CropScience AG, priority 2008, dated 2015)
# Assay: log P from HPLC-MS, no method note printed
# Assay type: physicochemical
# Conditions: method not given
row,chromatographic logP,SMILES
1,1.74,Cn1nc(C2CC2)c(C(F)(F)F)c1C(=O)O [3-Cyclopropyl-1-methyl-4-(trifluoromethyl)-1H-pyrazole-5-carboxylic acid]
2,1.15,Cn1nc(OC(F)F)cc1C(=O)O [3-(Difluoromethoxy)-1-methyl-1H-pyrazole-5-carboxylic acid]
3,1.83,"Cn1nc(OCC(F)(F)F)c(F)c1C(=O)O [4-Fluoro-1-methyl-3-(2,2,2-trifluoroethoxy)-1H-pyrazole-5-carboxylic acid]"
4,2.11,"Cn1nc(OCC(F)(F)F)c(I)c1C(=O)O [4-Iodo-1-methyl-3-(2,2,2-trifluoroethoxy)-1H-pyrazole-5-carboxylic acid]"
5,1.1,Cn1nc(C(F)F)c(C(F)(F)F)c1C(=O)O [3-(Difluoromethyl)-1-methyl-4-(trifluoromethyl)-1H-pyrazole-5-carboxylic acid]
6,2.24,"O=C(O)c1cnc(C(F)(F)C(F)(F)F)nc1C(F)(F)C(F)(F)F [2,4-Bis(pentafluoroethyl)pyrimidine-5-carboxylic acid]"
7,1.65,"Cn1nc(OCC(F)(F)F)cc1C(=O)O [1-Methyl-3-(2,2,2-trifluoroethoxy)-1H-pyrazole-5-carboxylic acid]"
8,3.55,CCOC(=O)c1c(C(F)(F)F)c(C(C)(C)F)nn1C [Ethyl 3-(2-fluoropropan-2-yl)-1-methyl-4-(trifluoromethyl)-1H-pyrazole-5-carboxylate]
9,2.79,"COC(=O)c1c(F)c(OCC(F)(F)F)nn1C [Methyl 4-fluoro-1-methyl-3-(2,2,2-trifluoroethoxy)-1H-pyrazole-5-carboxylate]"
10,2.38,CCOC(=O)c1c(C(F)(F)F)c(C(O)C2CC2)nn1C (stereo not drawn) [Ethyl 3-[cyclopropyl(hydroxy)methyl]-1-methyl-4-(trifluoromethyl)-1H-pyrazole-5-carboxylate]
11,4.14,COC(=O)c1c(C(F)(F)F)c(-c2ccc(C(F)(F)F)cc2)nn1C [Methyl 1-methyl-4-(trifluoromethyl)-3-[4-(trifluoromethyl)phenyl]-1H-pyrazole-5-carboxylate]
12,1.64,Cn1nc(OC(F)F)c(I)c1C(=O)O [4-Iodo-3-(difluoromethoxy)-1-methyl-1H-pyrazole-5-carboxylic acid]
13,3.17,"COC(=O)c1c(I)c(OCC(F)(F)F)nn1C [Methyl 4-iodo-1-methyl-3-(2,2,2-trifluoroethoxy)-1H-pyrazole-5-carboxylate]"
14,1.16,O=C(O)c1nccc(Cl)c1C(F)(F)F [4-Chloro-3-(trifluoromethyl)pyridine-2-carboxylic acid]
15,4.23,COC(=O)c1c(I)c(-c2ccc(C(F)(F)F)cc2)nn1C [Methyl 4-iodo-1-methyl-3-[4-(trifluoromethyl)phenyl]-1H-pyrazole-5-carboxylate]
16,2.62,COC(=O)c1c(Br)c(OC(F)F)nn1C [Methyl 4-bromo-3-(difluoromethoxy)-1-methyl-1H-pyrazole-5-carboxylate]
17,3.09,CCOC(=O)c1cnc(C(F)(F)F)nc1-c1ccccn1 [Ethyl 4-(pyridin-2-yl)-2-(trifluoromethyl)pyrimidine-5-carboxylate]
18,2.4,CCOC(=O)c1c(C(F)(F)F)c(C=O)nn1C [Ethyl 3-formyl-1-methyl-4-(trifluoromethyl)-1H-pyrazole-5-carboxylate]
19,2.61,"COC(=O)c1cc(OCC(F)(F)F)nn1C [Methyl 1-methyl-3-(2,2,2-trifluoroethoxy)-1H-pyrazole-5-carboxylate]"
20,2.57,COC(=O)c1c(Cl)c(OC(F)F)nn1C [Methyl 4-chloro-3-(difluoromethoxy)-1-methyl-1H-pyrazole-5-carboxylate]
21,2.33,CCOC(=O)c1c(C(F)(F)F)c(C(C)(C)O)nn1C [Ethyl 3-(2-hydroxypropan-2-yl)-1-methyl-4-(trifluoromethyl)-1H-pyrazole-5-carboxylate]
